Source: PMC8387799, “Inhibition Effect of Extract of Psychotria viridiflora Stem on α-Amylase and α-Glucosidase and Its Application in Lowering the Digestibility of Noodles” (Frontiers in Nutrition, 2021)
In brackets after ≈: the same amount, converted by molar mass.

System: T1, rat intestinal α-glucosidase
T1 construct: gene Mgam; native; supernatant of PBS extract of commercial rat intestinal powder (crude mixture of brush-border glucosidases)
Assay: turbidity ([…] nm) of corn starch hydrolysis, AUC, microplate
Format: biochemical
Conditions: corn starch substrate; PBS, 37 °C preincubation 15 min

C[C@H]1O[C@H](O[C@H]2[C@H](O)[C@@H](O)[C@@H](O[C@H]3[C@H](O)[C@@H](O)C(O)O[C@@H]3CO)O[C@@H]2CO)[C@H](O)[C@@H](O)[C@@H]1N[C@H]1C=C(CO)[C@@H](O)[C@H](O)[C@H]1O (stereo partly shown) [acarbose]
IC50: 2.27 ± 1.35 µg/mL (≈ 3.52 µM)
